Test [1] deals with B-hB7-H3 MC38 transplantation tumours. Briefly: B-hB7-H3 MC38 transplantation tumour model, ADC1 in combination with anti-PD-L1 drug. In kind it is in vivo, C57BL/6 mice. As to conditions: G4: anti-PD-L1 3 mg/kg i.p. BIW x4. As for the experimental part:
MC38 cells (Shunran (Shanghai) Biotechnology Co., Ltd.) were genetically modified to express the human B7H3 genes, thereby obtaining B-hB7-H3 MC38 cells. The cells were subcutaneously inoculated into C57BL/6 mice to establish a B-hB7-H3 MC38 tumour cell transplantation tumour model. When the tumours grew to approximately 140 mm^3, grouping for animal experiments was performed, a control group (G1: 0.9% sodium chloride injection), monotherapy groups (G2: ADC1 10 mg/kg group, G3: ADC1 3 mg/kg group, G4: anti-PD-L1 3 mg/kg group), and combination therapy groups (G5: group with ADC1 10 mg/kg in combination with anti-PD-L1 3 mg/kg, G6: group with ADC1 3 mg/kg in combination with anti-PD-L1 3 mg/kg) were established respectively, with 8 mice in each group. Dosing was performed according to the regimen in Table 1. The anti-PD-L1 drug was atezolizumab (Biocytogen). At the end of the experiment, therapeutic effects were evaluated according to the tumour growth inhibition (TGI), and tolerability was evaluated according to clinical observations, body weight changes, and mortality of the animals.
Note: a: the dosing volume was calculated at […] based on the body weight of the experimental animals, and each drug injection was completed within 10 to 20 seconds. • b: BIW refers to administration twice weekly. When the combined treatment groups were dosed on the same day, there was no required sequence or dosing interval between the two drugs.
Note: a: mean±standard error; b: statistical comparison of the tumour volume in the dosing groups versus the tumour volume in the G1 control group on Day 22 after grouping for dosing, one-way ANOVA analysis and Dunnett's test; ****p<0.0001. c: the tumour clearance proportion was counted according to the results on Day 25.

Test [2] has as its system recurrent or malignant cervical cancer. As to conditions: treatment of recurrent or malignant cervical cancer; clinical; cited from earlier work.

In the case of atezolizumab [Anti-PD-L1], in test [1] (Day 22), the “TGITV (%)” value was determined as 22.4%. Moreover, the “Tumour volume before dosing” value in test [1] (baseline before dosing, mean) came out at 140 mm3. Besides, in test [1] (counted on Day 25), the Tumour clearance proportion was 0/8. Moreover, the “Tumour volume Day 22 after grouping for dosing” value in test [1] (mean) was found to be 1689 mm3.
As for Tivdak: an ADC drug targeting TF, the ORR in test [2] was 24%.

(Values after US20260256933A1, “METHOD FOR TREATING CANCER VIA ANTI-B7H3 ANTIBODY-DRUG CONJUGATE” (MediLink Therapeutics (Suzhou) Co., Ltd., priority 2023, published 2026).)
